Measured values taken from patent publication US9040528B2, “Chemical compounds 542” (AstraZeneca AB, priority 2008, dated 2015).

biological target: Escherichia coli DNA gyrase A/B tetramer (Escherichia coli (strain K12), UniProt P0AES4+P0AES6); experiment: DNA gyrase supercoiling activity fluorescence polarisation assay; assay type: biochemical; settings: 5 nM enzyme, relaxed plasmid, 0.3 mM ATP, ambient temperature; read-out: E. coli DNA gyrase supercoiling IC50
Method in brief: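 Supercoiling reactions quenched with 40 nM 5′-BODIPY-FL triplex-forming oligonucleotide probe in pH 3.5 NaCl/sodium acetate buffer; after 60 min, fluorescence anisotropy read (ex 485/em 535 nm). IC50 by nonlinear regression, normalised to 0.8% DMSO (100% activity) and 5 μM ciprofloxacin (0% activity).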

Row | Structure (SMILES) | IC50
1 | C[C@@H]1CN2c3c(nc4c(-c5nccs5)noc4c3Cl)CC3(C(=O)NC(=O)NC3=O)[C@H]2[C@H](C)O1 (relative stereo) [Example 111, (2R,4S,4aS)-rel-11-chloro-2,4-dimethyl-8-(thiazol-2-yl)-2,4,4a,6-tetrahydro-1H,1′H-spiro[isoxazolo[4,5-g][1,4]oxazino[4,3-a][1,5]naphthyridine-5,5′-pyrimidine]-2′,4′,6′(3′H)-trione] | 700 nM
2 | C[C@@H]1CN2c3c(cc4c(C(=O)NCc5ccncc5)noc4c3F)CC3(C(=O)NC(=O)NC3=O)[C@H]2[C@H](C)O1 (relative stereo) [Example 155, (2R,4S,4aS)-rel-11-fluoro-2,4-dimethyl-2′,4′,6′-trioxo-N-(pyridin-4-ylmethyl)-2,2′,3′,4,4a,4′,6,6′-octahydro-1H,1′H-spiro[isoxazolo[4,5-g][1,4]oxazino[4,3-a]quinoline-5,5′-pyrimidine]-8-carboxamide] | 1200 nM
3 | CCOC(=O)c1cnn(-c2noc3c(F)c4c(cc23)CC2(C(=O)NC(=O)NC2=O)[C@H]2[C@H](C)O[C@H](C)CN42)c1 (relative stereo) [Example 37, ethyl 1-[(2R,4S,4aS)-rel-11-fluoro-2,4-dimethyl-2′,4′,6′-trioxo-1,1′,2,3′,4,4′,4a,6′-octahydro-2′H,6H-spiro[1,4-oxazino[4,3-a][1,2]oxazolo[4,5-g]quinoline-5,5′-pyrimidin]-8-yl]-1H-pyrazole-4-carboxylate] | 8500 nM
4 | Cc1ncc(-c2noc3c(Cl)c4c(nc23)CC2(C(=O)NC(=O)NC2=O)[C@H]2[C@H](C)O[C@H](C)CN42)s1 (relative stereo) [Example 117, (2R,4S,4aS)-rel-11-Chloro-2,4-dimethyl-8-(2-methylthiazol-5-yl)-2,4,4a,6-tetrahydro-1H,1′H-spiro[isoxazolo[4,5-g][1,4]oxazino[4,3-a][1,5]naphthyridine-5,5′-pyrimidine]-2′,4′,6′(3′H)-trione] | 2000 nM
5 | CNC(=O)c1noc2c(Cl)c3c(nc12)CC1(C(=O)NC(=O)NC1=O)[C@H]1[C@H](C)O[C@H](C)CN31 (relative stereo) [Example 125, (2R,4S,4aS)-rel-11-Chloro-N,2,4-trimethyl-2′,4′,6′-trioxo-2,2′,3′,4,4a,4′,6,6′-octahydro-1H,1′H-spiro[isoxazolo[4,5-g][1,4]oxazino[4,3-a][1,5]naphthyridine-5,5′-pyrimidine]-8-carboxamide] | 700 nM
6 | CC(C)NC(=O)c1noc2c(F)c3c(cc12)CC1(C(=O)NC(=O)NC1=O)[C@H]1[C@H](C)O[C@H](C)CN31 [Example 147(a), (2R,4S,4aS)-11-fluoro-N-isopropyl-2,4-dimethyl-2′,4′,6′-trioxo-2,2′,3′,4,4a,4′,6,6′-octahydro-1H,1′H-spiro[isoxazolo[4,5-g][1,4]oxazino[4,3-a]quinoline-5,5′-pyrimidine]-8-carboxamide] | 900 nM
7 | C[C@@H]1CN2c3c(nc4c(-c5nccn5C)noc4c3Cl)CC3(C(=O)NC(=O)NC3=O)[C@H]2[C@H](C)O1 (relative stereo) [Example 114, (2R,4S,4aS)-rel-11-Chloro-2,4-dimethyl-8-(1-methyl-1H-imidazol-2-yl)-2,4,4a,6-tetrahydro-1H,1′H-spiro[isoxazolo[4,5-g][1,4]oxazino[4,3-a][1,5]naphthyridine-5,5′-pyrimidine]-2′,4′,6′(3′H)-trione] | 5200 nM
8 | CC(=O)NC1CN(C(=O)c2noc3c(F)c4c(cc23)CC2(C(=O)NC(=O)NC2=O)[C@H]2[C@H](C)O[C@H](C)CN42)C1 (relative stereo) [Example 160, N-(1-((2R,4S,4aS)-rel-11-fluoro-2,4-dimethyl-2′,4′,6′-trioxo-2,2′,3′,4,4a,4′,6,6′-octahydro-1H,1′H-spiro[isoxazolo[4,5-g][1,4]oxazino[4,3-a]quinoline-5,5′-pyrimidine]-8-ylcarbonyl)azetidin-3-yl)acetamide] | 1000 nM
9 | C[C@@H]1CN2c3c(cc4c(-c5ccccn5)noc4c3F)CC3(C(=O)NC(=O)NC3=O)[C@H]2[C@H](C)O1 (relative stereo) [Example 5, (2R,4S,4aS)-rel-11-fluoro-2,4-dimethyl-8-pyridin-2-yl-1,2,4,4a-tetrahydro-2′H,6H-spiro[isoxazolo[4,5-g][1,4]oxazino[4,3-a]quinoline-5,5′-pyrimidine]-2′,4′,6′(1′H,3′H)-trione] | 200 nM
10 | C[C@@H]1CN2c3c(cc4c(C(=O)N5CCN(C)C(=O)C5)noc4c3F)CC3(C(=O)NC(=O)NC3=O)[C@H]2[C@H](C)O1 (relative stereo) [Example 141, (2R,4S,4aS)-rel-11-fluoro-2,4-dimethyl-8-(4-methyl-3-oxopiperazine-1-carbonyl)-2,4,4a,6-tetrahydro-1H,1′H-spiro[isoxazolo[4,5-g][1,4]oxazino[4,3-a]quinoline-5,5′-pyrimidine]-2′,4′,6′(3′H)-trione] | 4900 nM
11 | C[C@@H]1CN2c3c(cc4c(-c5nccn5C)noc4c3Cl)CC3(C(=O)NC(=O)NC3=O)[C@H]2[C@H](C)O1 (relative stereo) [Example 89, (2R,4S,4aS)-rel-11-chloro-2,4-dimethyl-8-(1-methyl-1H-imidazol-2-yl)-1,2,4,4a-tetrahydro-2′H,6H-spiro[1,4-oxazino[4,3-a][1,2]oxazolo[4,5-g]quinoline-5,5′-pyrimidine]-2′,4′,6′(1′H,3′H)-trione] | 1300 nM
12 | C[C@@H]1CN2c3c(cc4c(-c5nc(C(=O)N(C)C)cs5)noc4c3F)CC3(C(=O)NC(=O)NC3=O)[C@H]2[C@H](C)O1 (racemic) [Example 86, 2-[(2R,4S,4 aS)-rel-11-fluoro-2,4-dimethyl-2′,4′,6′-trioxo-1,1′,2,3′,4,4′,4a,6′-octahydro-2′H,6H-spiro[1,4-oxazino[4,3-a][1,2]oxazolo[4,5-g]quinoline-5,5′-pyrimidin]-8-yl]-N,N-dimethyl-1,3-thiazole-4-carboxamide] | 5000 nM
13 | C[C@@H]1CN2c3c(cc4c(-c5cn(C)cn5)noc4c3F)CC3(C(=O)NC(=O)NC3=O)[C@H]2[C@H](C)O1 (relative stereo) [Example 69, (2R,4S,4aS)-rel-11-fluoro-2,4-dimethyl-8-(1-methyl-1H-imidazol-4-yl)-1,2,4,4a-tetrahydro-2′H,6H-spiro[1,4-oxazino[4,3-a][1,2]oxazolo[4,5-g]quinoline-5,5′-pyrimidine]-2′,4′,6′(1′H,3′H)-trione] | 17000 nM
14 | C[C@@H]1CN2c3c(cc4c(-c5cccnc5)noc4c3Cl)CC3(C(=O)NC(=O)NC3=O)[C@H]2[C@H](C)O1 (relative stereo) [Example 47, (2R,4S,4aS)-rel-11-chloro-2,4-dimethyl-8-(pyridin-3-yl)-1,2,4,4a-tetrahydro-2′H,6H-spiro[1,4-oxazino[4,3-a][1,2]oxazolo[4,5-g]quinoline-5,5′-pyrimidine]-2′,4′,6′(1′H,3′H)-trione] | 300 nM
15 | C[C@@H]1CN2c3c(cc4c(-c5nccnc5Cl)noc4c3F)CC3(C(=O)NC(=O)NC3=O)[C@H]2[C@H](C)O1 (relative stereo) [Example 78, (2R,4S,4aS)-rel-8-(3-chloropyrazin-2-yl)-11-fluoro-2,4-dimethyl-2,4,4a,6-tetrahydro-1H,1′H-spiro[isoxazolo[4,5-g][1,4]oxazino[4,3-a]quinoline-5,5′-pyrimidine]-2′,4′,6′(3′H)-trione] | 800 nM
16 | C[C@@H]1CN2c3c(cc4c(-n5cc(I)cn5)noc4c3F)CC3(C(=O)NC(=O)NC3=O)[C@H]2[C@H](C)O1 (racemic) [Example 36, (2R,4S,4 aS)-rel-11-fluoro-8-(4-iodo-1H-pyrazol-1-yl)-2,4-dimethyl-1,2,4,4a-tetrahydro-2′H,6H-spiro[1,4-oxazino[4,3-a][1,2]oxazolo[4,5-g]quinoline-5,5′-pyrimidine]-2′,4′,6′(1′H,3′H)-trione] | 2100 nM
17 | C[C@@H]1CN2c3c(cc4c(N5CCCCCC5)noc4c3F)CC3(C(=O)NC(=O)NC3=O)[C@H]2[C@H](C)O1 (relative stereo) [Example 26, (2R,4S,4aS)-rel-8-(azepan-1-yl)-11-fluoro-2,4-dimethyl-1,2,4,4a-tetrahydro-2′H,6H-spiro[isoxazolo[4,5-g][1,4]oxazino[4,3-a]quinoline-5,5′-pyrimidine]-2′,4′,6′(1′H,3′H)-trione] | 3700 nM
18 | Cc1cnn(-c2noc3c(F)c4c(cc23)CC2(C(=O)NC(=O)NC2=O)[C@H]2[C@H](C)O[C@H](C)CN42)c1 (relative stereo) [Example 60, (2R,4S,4aS)-rel-11-fluoro-2,4-dimethyl-8-(4-methyl-1H-pyrazol-1-yl)-1,2,4,4a-tetrahydro-2′H,6H-spiro[1,4-oxazino[4,3-a][1,2]oxazolo[4,5-g]quinoline-5,5′-pyrimidine]-2′,4′,6′(1′H,3′H)-trione] | 1200 nM
19 | C[C@@H]1CN2c3c(cc4c(C(F)F)noc4c3F)CC3(C(=O)NC(=O)NC3=O)[C@H]2[C@H](C)O1 [Example 93(b), (2R,4S,4aS)-8-(difluoromethyl)-11-fluoro-2,4-dimethyl-2,4,4a,6-tetrahydro-1H,1′H-spiro[isoxazolo[4,5-g][1,4]oxazino[4,3-a]quinoline-5,5′-pyrimidine]-2′,4′,6′(3′H)-trione] | 400 nM
20 | CSc1noc2c(F)c3c(cc12)CC1(C(=O)NC(=O)NC1=O)[C@H]1[C@H](C)O[C@H](C)CN31 (relative stereo) [Example 62, (2R,4S,4aS)-rel-11-fluoro-2,4-dimethyl-8-(methylsulfanyl)-1,2,4,4a-tetrahydro-2′H,6H-spiro[1,4-oxazino[4,3-a][1,2]oxazolo[4,5-g]quinoline-5,5′-pyrimidine]-2′,4′,6′(1′H,3′H)-trione] | 900 nM
21 | C[C@@H]1CN2c3c(nc4c(C(=O)NCc5ccc(C#N)cc5)noc4c3Cl)CC3(C(=O)NC(=O)NC3=O)[C@H]2[C@H](C)O1 (relative stereo) [Example 132, (2R,4S,4aS)-rel-11-chloro-N-(4-cyanobenzyl)-2,4-dimethyl-2′,4′,6′-trioxo-2,2′,3′,4,4a,4′,6,6′-octahydro-1H,1′H-spiro[isoxazolo[4,5-g][1,4]oxazino[4,3-a][1,5]naphthyridine-5,5′-pyrimidine]-8-carboxamide] | 7700 nM
